Data on two molecules can be found in publication PMC7471466 (Acta Pharmacologica Sinica, 2020).

By IC50 is commonly meant the concentration that inhibits the measured activity by half.

Where two headings read alike, the source gives them in different places.

The conditions of data set [1]: patients, high dose (>50 mg MTX/kg) therapy regimens; cited from earlier work.
The test system of data set [2] is OATPs. As to conditions: cited from earlier work.
The subject of data set [3] is sandwich-cultured rat hepatocytes. As to conditions: concentration-dependent.
Data set [4] deals with rat hepatocytes. Particulars: read-out: IC50 (toxic to hepatocytes); cited from earlier work.
Data set [5] deals with AOX. Particulars: NIM 5–20 μM directly added to the RLC incubation of MTX.
In data set [6] the test system is AOX3. Particulars: rat livers, 20, 50, 100 mg·kg−1·d−1 NIM for 5 days, dose-dependent.
For data set [7], the system named is AOX1. As to conditions: rat livers, 20, 50, 100 mg·kg−1·d−1 NIM for 5 days, dose-dependent.
For data set [8], the system named is AOX.
Data set [9] deals with AOX1 mRNA. Particulars: rat hepatocytes, 0–20 μM NIM for 24 h.
In data set [10] the test system is AOX3. As to conditions: rat hepatocytes, 0–20 μM NIM for 24 h, concentration-dependent.
The test system of data set [11] is AOX1. Particulars: rat hepatocytes, 0–20 μM NIM for 24 h, concentration-dependent.
Data set [12] relates to AOX. Description: AOX activity in rat hepatocytes, 7-OH MTX formation from probe substrate MTX. It counts as cell-based. As to conditions: for increase in 7-OH MTX yield vs control: then MTX 50 μM.
The subject of data set [13] is human hepatocytes. As to conditions: read-out: IC50 (toxic to hepatocytes); cited from earlier work.
The subject of data set [14] is AOX. The data set is classed as cell-based, human. Particulars: for increase in 7-OH MTX yields vs control: human hepatocytes.
Data set [15] concerns AOX3 mRNA. As to conditions: rat livers, 20, 50, 100 mg·kg−1·d−1 NIM for 5 days.
The subject of data set [16] is AOX3 mRNA. As to conditions: rat hepatocytes, 0–20 μM NIM for 24 h.
Data set [17] has as its system MRP2. As to conditions: cited from earlier work.
Setting [18] is: NIM-treated rats, 100 mg·kg−1·d−1, 5 days, vs nontreated rats.

As for `CN(Cc1cnc2nc(N)nc(N)c2n1)c1ccc(C(=O)N[C@@H](CCC(=O)O)C(=O)O)cc1` [MTX, methotrexate], in data set [1], the “MTX excreted as 7-OH MTX” value is recorded as not above 33%.

With `CS(=O)(=O)Nc1ccc([N+](=O)[O-])cc1Oc1ccccc1` [NIM, nimesulide], the “inhibition of OATPs” value in data set [2] is reported as “inhibitor”. In addition, the “cellular plus biliary accumulation of MTX” value in data set [3] was “reduced”. Further, the IC50 in data set [4] was 40 µM; in data set [13] it was 213 µM. For the same molecule, the “7-OH MTX formation vs incubation containing no NIM” value in data set [5] was “no significant difference”. Moreover, the AOX3 protein level entry in [6] and in data set [10] was “decreased” in each case. Besides, the AOX1 protein level entry in data set [7] and in data set [11] was “increased” in each case. Besides, in data set [8] (setting [18]), the “increase in AOX-mediated metabolite from JNJ-38877605 in liver cytosol” value turned out to be 3.8 fold. Besides, the “increase in AOX-mediated metabolite from SGX523 in liver cytosol” value in [8] (setting [18]) was 3.4 fold. Moreover, in data set [8] (setting [18]), the “increase in AOX-mediated metabolite from phthalazine in liver cytosol” value worked out at 2.5 fold. In addition, the “increase in 7-OH MTX formation in liver cytosol vs vehicle” value was 1.9 fold in [8] (rats pretreated with 20 mg·kg−1·d−1 NIM for 5 days); 3.2 fold in data set [8] (rats pretreated with 50 mg·kg−1·d−1 NIM for 5 days); 1.0 fold in data set [8] (rats pretreated with 100 mg·kg−1·d−1 NIM for 1 day); 2.0 fold in data set [8] (rats pretreated with 100 mg·kg−1·d−1 NIM for 3 days); 3.7 fold in data set [8] (rats pretreated with 100 mg·kg−1·d−1 NIM for 5 days (dose experiment)); 3.8 fold in data set [8] (rats pretreated with 100 mg·kg−1·d−1 NIM for 5 days (time experiment)). Further, in [9], the “AOX1 mRNA level” value is listed as “did not alter”. Further, the “increase in 7-OH MTX yields vs control” value in [12] (5 μM NIM for 24 h) is 1.3 fold; in data set [12] (10 μM NIM for 24 h) it was 1.8 fold; in data set [12] (20 μM NIM for 24 h (concentration experiment)) it was 3.1 fold; in data set [14] (10 μM NIM for 24 h), 1.3 fold; in [14] (50 μM NIM for 24 h), 1.7 fold; in data set [14] (100 μM NIM for 24 h), 2.0 fold. The “increase in 7-OH MTX yield vs control” value in [12] (20 μM NIM for 12 h) came out at 1.7 fold; in [12] (20 μM NIM for 24 h (induction time experiment)), 2.5 fold; in data set [12] (20 μM NIM for 48 h), 2.7 fold; in [12] (20 μM NIM for 72 h), 2.7 fold. Also, the “increase in accumulated excretion of 7-OH MTX in 0–24 h feces” value (male, Wistar, rat, feces, oral) is 2.1 fold. Where the note is “male, Wistar, rat, urine, oral”, the “increase in accumulated excretion of 7-OH MTX in 0–24 h urine” value was found to be 5.2 fold. Further, the “increase in accumulated excretion of MTX in 0–24 h urine” value (male, Wistar, rat, urine, oral) is given as 1.8 fold. The “accumulated excretion of MTX in 0–24 h feces” value (rats, 100 mg·kg−1·d−1 NIM for 5 days, then oral MTX 50 mg/kg) was “no significant change”. Moreover, the “increase in 7-OH MTX formation” value in data set [14] (primary human hepatocytes, NIM (20 μM) for 24 h) is 2.0 fold. Besides, the figures for the “AOX3 mRNA level” value in data set [15] and in data set [16] were “no significant alteration” and “did not alter”, respectively. Also, the “inhibition of MRP2” value in [17] is given as “inhibitor”.
